Data from US20240343699A1, “DERIVATIVES OF SUBSTITUTED MORPHOLINES AND USES THEREOF” (Supernus Pharmaceuticals, Inc., priority 2023, published 2024).
Values joined by “and” are separate entries in the source; they are usually repeats but may differ in a detail not shown here. Equal values may be shown once. Read-outs that look alike come from different tables or passages of the source.

Key:
[1] = In vitro stability in human plasma; assay type: in vitro ADME; conditions: Human plasma, final concentration 2 μM
Procedure: Test Article Solutions: COMPOUND A, COMPOUND B and COMPOUND C stock solutions at 10 mM were prepared in dimethyl sulfoxide (DMSO). Further dilution with DMSO was made to prepare 2.0 mM. The working solutions of 50 μM was prepared with 20% MeOH/water. […] Prior to use, the stock solutions were brought to room temperature and thoroughly mixed and prepared same as described above.
Incubations were conducted in 96-well plate format. The time points defined for this study are 0, 5, 15, 30 and 60 minutes.
An appropriate volume of plasma from test species were added to a 96-deep well plate, and COMPOUND A, COMPOUND B and COMPOUND C working solution was spiked into the plasma in duplicate to achieve a final concentration of 2.0 μM. For positive controls, the rat plasma was spiked with enalapril, the dog plasma spiked with bisacodyl and the human plasma was spiked with propantheline. All spiked plasma sample plates were incubated in a water bath at 37° C. with shaking.
At the end of each time point, samples were immediately quenched with three volume of cold quenching solution.
A study was conducted to examine the plasma stability. Test Compounds: COMPOUND D, COMPOUND E, and Viloxazine. Positive controls: Enalapril and Propantheline.

Binding assays = conditions: 1.0E−05 M
Procedure: A study was conducted to test COMPOUND D and COMPOUND E in Binding and enzyme and uptake assays.
COMPOUND D and COMPOUND E were tested at 1.0E-05 M.
The results are expressed as a percent of control specific binding and as a percent inhibition of control specific binding
The IC50 values (concentration causing a half-maximal inhibition of control specific binding) and Hill coefficients (nH) were determined by non-linear regression analysis of the competition curves generated with mean replicate values using Hill equation curve fitting […]
where Y=specific binding, A=left asymptote of the curve, D=right asymptote of the curve, C=compound concentration, C50=IC50, and nH=slope factor. This analysis was performed using software developed at Cerep (Hill software) and validated by comparison with data generated by the commercial software SigmaPlot® 4.0 for Windows® (© 1997 by SPSS Inc.).
The inhibition constants (Ki) were calculated using the Cheng Prusoff equation where L=concentration of radioligand in the assay, and KD=affinity of the radioligand for the receptor. A scatchard plot is used to determine the KD.
In Vitro Pharmacology. Results showing an inhibition (or stimulation for assays run in basal conditions) higher than […] were considered to represent significant effects of the test compounds. Results showing an inhibition (or stimulation) between 25% and 50% are indicative of weak to moderate effects. Results showing an inhibition (or stimulation) lower than […] were not considered significant and mostly attributable to variability of the signal around the control level.

[2] = Metabolic stability in human intestinal homogenate; assay type: in vitro ADME; conditions: Human intestinal homogenates; for half-life at 1 μM / microsomal CLint at 1 μM: intestinal homogenate, pH 7.2; for microsomal CLint at 1 μM: read-out: CLint(mic.)
Procedure: Incubation Buffer (PBK): 50 mM potassium phosphate buffer (PBK) was prepared from 1 M potassium phosphate buffer, pH 7.2. […] The dilution of 1 mM intermediate was prepared from 10 mM stock with 90% methanol/water, then […] working solutions were prepared by diluting the 1 mM intermediates with 50 mM PBK. […] Prior to use, the stock solutions were brought to room temperature and thoroughly mixed. […] Cofactors Solutions: the cofactor solution was made at 10 mM of NADPH (nicotinamide-adenine dinucleotide phosphate, reduced form) in 50 mM PBK buffer.
The incubation was carried out in 96-well plates. The intestinal homogenate mixture solution was added to 96-well plates (80 μL/well) in duplicate. […] Reaction was initiated by adding cofactor solution at 10 µL/well. The plates were incubated at 37° C. in a water bath with shaking. […] The final organic solvent content in the incubation was ≤1%.
At specified time points, i.e., 5, 10, 20, 30 and 60 minutes, NCF60 (no cofactor at 60 min, without adding NADPH replaced with 50 mM PBK buffer) reaction was stopped by adding three volumes of stop solution. The time zero (To) samples were prepared by adding three volumes of stop solution to intestinal homogenate samples, followed by addition of test article or control, and cofactor solution 10 μL/well.
Subsequently, 100 μL of supernatant was removed from each well, diluted with 100 μL pure water and analyzed by LC/MS/MS.
A study was conducted to examine the metabolic stability. […] Positive controls: 7-hydroxycoumarin and Testosterone.

[3] = Preclinical PK after intraperitoneal dosing of COMPOUND D, COMPOUND B and viloxazine; assay type: in vivo, mouse; conditions: COMPOUND D IP 10.978 mg/kg; for Cmax: read-out: Cmax, plasma COMPOUND D

## CCOc1ccccc1OCC1CN(C(=O)OC(C)OC(=O)[C@H](N)C(C)C)CCO1 (stereo partly drawn) [COMPOUND D]
[1]
  % Remaining at 60 min (Mean): 77.1%
Binding assays
  inhibition, 5-HT2B(h) (antagonist effect): 81.5%
  inhibition, 5-HT2c(h) (antagonist effect): 72.4%
  inhibition, 5-HT4e(h) (antagonist radioligand): 78.6%
  inhibition, norepinephrine transporter(h) (antagonist radioligand): 78.4%
[2]
  % Remaining at 60 min: 0.00%
  half-life at 1 μM: 0.0142 h
  microsomal CLint at 1 μM: 1630 µL/min/mg
[3]; CD-1, mouse, plasma, ip, 10.978 mg/kg, 0.250 h, individual mice, read-out: Plasma concentration of COMPOUND D
  concentration at 0.25 h: 3.44 ng/mL
[3]; CD-1, mouse, plasma, ip, 10.978 mg/kg, 0.500 h, individual mice, read-out: Plasma concentration of COMPOUND D
  concentration at 0.5 h: 1.12 ng/mL
[3]; CD-1, mouse, plasma, ip, 10.978 mg/kg, 1.00 h, individual mice
  concentration at 1 h: 5.74 ng/mL
[3]; CD-1, mouse, plasma, ip, 10.978 mg/kg, 24.0 h, individual mice
  concentration at 24 h: 3.48 ng/mL
[3]; CD-1, mouse, plasma, ip, 10.978 mg/kg, individual mice
  Cmax: 5.74 ng/mL
[3]; CD-1, mouse, plasma, ip, 10.978 mg/kg, mean, read-out: AUC0-last, plasma COMPOUND D
  AUC(0-t): 42.3 ng·h/mL
[3]; CD-1, mouse, plasma, ip, 10.978 mg/kg, mean
  Cmax: 4.61 ng/mL
[3]; CD-1, mouse, plasma, ip, 10.978 mg/kg, mean, read-out: MRT0-last, plasma COMPOUND D
  MRT last: 6.5 h
[3]; CD-1, mouse, plasma, ip, 10.978 mg/kg, mean, read-out: Tmax, plasma COMPOUND D
  Tmax: 12.5 h
[3]; 0.250 h, individual mice, 10.978 mg/kg
  Plasma concentration of COMPOUND D: BQL
[3]; 0.500 h, individual mice, 10.978 mg/kg
  Plasma concentration of COMPOUND D: BQL
[3]; 1.00 h, individual mice, 10.978 mg/kg
  Plasma concentration of COMPOUND D: BQL
[3]; 2.00 h, individual mice
  Plasma concentration of COMPOUND D: BQL
[3]; 4.00 h, individual mice
  Plasma concentration of COMPOUND D: BQL
[3]; 8.00 h, individual mice
  Plasma concentration of COMPOUND D: BQL
[3]; 8.00 h, individual mice, 10.978 mg/kg
  Plasma concentration of Viloxazine: BQL
[3]; 24.0 h, individual mice
  Plasma concentration of Viloxazine: BQL
[3]; 24.0 h, individual mice, 10.978 mg/kg
  Plasma concentration of COMPOUND D: BQL
[3]; individual mice, 10.978 mg/kg
  AUC0-last, plasma COMPOUND D: 2.00 ng·h/mL and 82.6 ng·h/mL
  Cmax, plasma COMPOUND D: 3.48 ng/mL
  MRT0-last, plasma COMPOUND D: 0.860 h and 12.1 h
  Tlast, plasma COMPOUND D: 1.00 h and 24.0 h
  Tmax, plasma COMPOUND D: 1.00 h and 24.0 h
[3]; mean
  Tlast, plasma COMPOUND D: 12.5 h

## CCOc1ccccc1OCC1CN(C(=O)OC(OC(=O)[C@@H](N)C(C)C)C(C)C)CCO1 (stereo partly drawn) [COMPOUND E]
[1]
  % Remaining at 60 min (Mean): 90.3%
Binding assays
  inhibition, 5-HT2B(h) (agonist radioligand): 80.2%
  inhibition, 5-HT2C(h) (agonist radioligand): 54.1%
  inhibition, Ca^2+ channel (L, diltiazem site) (benzothiazepines) (antagonist radioligand): 78.9%
  inhibition, Ca^2+ channel (L, verapamil site) (phenylalkylamine) (antagonist radioligand): 50.7%
  inhibition, MT3 (ML2) (agonist radioligand): 51.1%
  inhibition, Na^+ channel (site 2) (antagonist radioligand): 84.5%
[2]
  % Remaining at 60 min: 0.90%
  half-life at 1 μM: 0.18 h
  microsomal CLint at 1 μM: 128 µL/min/mg
